In patent publication US20090221624A1, “4-AMINOQUINOLINE COMPOUNDS FOR TREATING VIRUS-RELATED CONDITIONS” (priority 2005, published 2009):
Where two headings read alike, the source gives them in different places.

Legend:
[1] = test system: YFV (YF-hRuPac cells); assay: microbe, parasite or virus in culture; format: cell-based, yellow fever virus; details: for inhibition at 25 µM / EC50: Yellow fever virus; for inhibition at 25 µM: 24 h, read-out: YFV Inh; for EC50: read-out: YFV EC50
[2] = test system: HCV replicon (Clone A cells, Huh7, subgenomic hepatits C virus RNA); assay: HCV Neo screening assay (HCV replicon, NPTII ELISA); format: cell-based, hepatitis C virus; details: for inhibition at 25 µM / EC50: Hepatitis C virus, Huh-7; for inhibition at 25 µM: primary screening, 25 μM final concentration, 24 hours, percent inhibition of viral replication, read-out: HCV Inh; for EC50: Secondary Data, HCV; for HCV TI: therapeutic index CC50/EC50, HCV
[3] = test system: EBOV minigenome; assay: microbe, parasite or virus in culture; format: cell-based, Ebola virus; details: for inhibition at 25 µM / EC50: Zaire ebolavirus; for inhibition at 25 µM: 24 h, read-out: EBOV Inh; for EC50: read-out: EBOV EC50
[4] = in vitro
[5] = test system: SINV (SR19-F-luc cells); assay: SINV antiviral activity, SR19-F-luc cells, Firefly luciferase; format: cell-based; details: Sindbis virus; for inhibition at 25 µM: primary screening, 25 μM final concentration, 24 hours, percent inhibition of viral replication, read-out: SINV Inh; for EC50: secondary screening, SR19-F-luc cells
[6] = test system: WNV (WN-hRuPac cells); assay: WNV antiviral activity, WN-hRuPac cells, Renilla luciferase; format: cell-based, West Nile virus; details: for inhibition at 25 µM / EC50: West Nile virus; for inhibition at 25 µM: primary screening, 25 μM final concentration, 24 hours, percent inhibition of viral replication, read-out: WNV Inh; for EC50: Secondary Data, WNV, read-out: WNV EC50; for WNV TI: therapeutic index CC50/EC50, WNV
[7] = test system: RSV minigenome; assay: RSV minigenome-dependent β-galactosidase expression assay (RSV β-Gal); format: cell-based, respiratory syncytial virus; details: for EC50: Secondary Data, RSV, read-out: RSV EC50; for inhibition at 25 µM: primary screening, 25 μM final concentration, 24 hours, percent inhibition of viral replication, read-out: RSV Inh; for RSV TI: therapeutic index CC50/EC50, RSV
[8] = human respiratory syncytial virus

Row | Structure (SMILES) | inhibition at 25 µM [1] [%] | inhibition at 25 µM [2] [%] | inhibition at 25 µM [3] [%] | EC50 [3] [µM] | CC50 ([4]; DNG CC50) [µM] | CC50 ([4]; EBOV CC50) [µM] | CC50 ([4]; RSV CC50) [µM] | CC50 ([4]; SINV CC50) [µM] | CC50 ([4]; WNV CC50) [µM] | CC50 ([4]; YFV CC50) [µM] | inhibition at 25 µM [5] [%] | inhibition at 25 µM [6] [%] | EC50 [7, 8] [µM] | inhibition at 25 µM [7, 8] [%] | RSV TI [7] | YFV TI [1] | EC50 [1] [µM] | CC50 ([4]; HCV CC50) [µM] | EC50 [6] [µM] | WNV TI [6] | other results
1 | CCOC(=O)c1cnc2c(OC)cccc2c1NCc1ccccc1 [Compound 62] | 76.6 | -5.83 | 97.4 | 75 | 43.5 | 43.5 | 43.5 | 43.5 | 43.5 | 43.5 | 81.3 | 67.7 | 3.73 | 99 | 11.66 |  |  |  |  |  | 
2 | Cc1cccc(Nc2c3c(nc4ccccc24)CCC3)c1 [Compound 11] | 79.1 | 143 | 62.7 | 25.9 | 28.8 | 28.8 | 28.8 | 28.8 | 28.8 | 28.8 | 81.7 | 75 | 2.9 | 99.5 | 9.91 | 5.74 | 5.01 | 9.67 | 9.79 | 2.94 | EC50 [2]: 3.37 µM; HCV TI [2]: 2.87; EC50 [5]: 2.8 µM
3 | CCOC(=O)c1cnc2c(OC)cccc2c1NCc1ccco1 [Compound 67] | 70.7 | 5.39 | 86.6 | 20.1 | 29.9 | 29.9 | 29.9 | 29.9 | 29.9 | 29.9 | 68 | 33.5 | 1.2 | 98.3 | 24.88 |  |  |  |  |  | 
4 | CCOC(=O)c1cnc2c(Cl)c(Cl)ccc2c1NCc1ccco1 [Compound 19] | 93.2 | 50.9 | 0.97 | 75 | 20.9 | 20.9 | 20.9 | 20.9 | 20.9 | 20.9 | 11.9 | 80.6 | 1.77 | 82.3 | 11.81 | 7.98 | 2.62 |  | 3.98 | 5.25 | 
5 | Cc1ccc(Nc2cc(C)nc3ccc(C)cc23)cc1 [Compound 6] | 77.7 | 187 | 42.7 |  | 35.2 | 35.2 | 35.2 | 35.2 | 35.2 | 35.2 | 76.8 | 79.1 | 9.86 | 91.2 | 3.57 | 2.73 | 12.9 | 11.7 | 38.7 | 0.91 | EC50 [2]: 14 µM; HCV TI [2]: 0.84; EC50 [5]: 2.3 µM
6 | CCOC(=O)c1cnc2c(OC)cccc2c1NCCCO [Compound 70] | 62.6 | 55.6 | 74.7 | 69.7 | 45.8 | 45.8 | 45.8 | 45.8 | 45.8 | 45.8 | 64.5 | 14.6 | 3.02 | 95.8 | 15.15 |  |  | ≥ 75 |  |  | 
7 | CCOC(=O)c1cnc2c(OC)cccc2c1NCc1cccnc1 [Compound 68] | 71.8 | 44.7 | 74.5 | 68.7 | 51 | 51 | 51 | 51 | 51 | 51 | 72.8 | 49.7 | 3 | 98.9 | 17 |  |  |  |  |  | 
8 | Cc1ccc(Nc2c3c(nc4ccc(C)cc24)CCC3)cc1 [Compound 28] | 75 | 155 | 19.2 |  | 43.8 | 43.8 | 43.8 | 43.8 | 43.8 | 43.8 | 81.3 | 75.2 | 4.58 | 93.7 | 9.56 | 6.45 | 6.79 | 6.82 | 17.4 | 2.52 | EC50 [2]: 7.47 µM; HCV TI [2]: 0.91; EC50 [5]: 2.73 µM
9 | COc1ccccc1Nc1cc(C)nc2c(C)c(C)cc(N)c12 [Compound 77] |  |  |  | 75 | 52.6 | 52.6 | 52.6 | 52.6 | 52.6 | 52.6 |  |  |  |  | 11.07 |  |  |  |  |  | EBOV Inh [3]: 94.37%; EC50 [7]: 4.75 µM
10 | CCOc1ccc2nc(C)cc(Nc3ccc(Cl)cc3)c2c1 [Compound 59] | 84.6 | 140 | 92.2 | 3.23 | 21.2 | 21.2 | 21.2 | 21.2 | 21.2 | 21.2 | 93.5 | 83.7 | 3.26 | 99.7 | 6.5 | 4.82 | 4.4 | 7.45 | 10.9 | 1.94 | EC50 [2]: 6.07 µM; HCV TI [2]: 1.23
11 | Cc1cc(Nc2ccc(C)c(Cl)c2)c2cccc(C)c2n1 [Compound 50] | 92.2 | 138 | 42.6 |  | 66.2 | 66.2 | 66.2 | 66.2 | 66.2 | 66.2 | 65.8 | 82 | 6.76 | 85.5 | 9.79 | 19.41 | 3.41 | 7.32 | 6.3 | 10.51 | EC50 [2]: 8.62 µM; HCV TI [2]: 0.85
